The results in this text go back to ChEMBL document CHEMBL1165979, “Peptide fragmentation as an approach in modeling of an active peptide and designing a competitive inhibitory peptide for HMG-CoA reductase” (Bioorg Med Chem, 2010).

Non-standard residues stand in square brackets, D forms with d. Residues, ends and D or L forms follow the SMILES beside them. Phe(4-F) = N[C@@H](Cc1ccc(F)cc1)C(=O)O

The target of one assay is T1, 3-hydroxy-3-methylglutaryl-coenzyme A reductase (Homo sapiens, UniProt P04035).
T1 sequence (P04035 whole entry): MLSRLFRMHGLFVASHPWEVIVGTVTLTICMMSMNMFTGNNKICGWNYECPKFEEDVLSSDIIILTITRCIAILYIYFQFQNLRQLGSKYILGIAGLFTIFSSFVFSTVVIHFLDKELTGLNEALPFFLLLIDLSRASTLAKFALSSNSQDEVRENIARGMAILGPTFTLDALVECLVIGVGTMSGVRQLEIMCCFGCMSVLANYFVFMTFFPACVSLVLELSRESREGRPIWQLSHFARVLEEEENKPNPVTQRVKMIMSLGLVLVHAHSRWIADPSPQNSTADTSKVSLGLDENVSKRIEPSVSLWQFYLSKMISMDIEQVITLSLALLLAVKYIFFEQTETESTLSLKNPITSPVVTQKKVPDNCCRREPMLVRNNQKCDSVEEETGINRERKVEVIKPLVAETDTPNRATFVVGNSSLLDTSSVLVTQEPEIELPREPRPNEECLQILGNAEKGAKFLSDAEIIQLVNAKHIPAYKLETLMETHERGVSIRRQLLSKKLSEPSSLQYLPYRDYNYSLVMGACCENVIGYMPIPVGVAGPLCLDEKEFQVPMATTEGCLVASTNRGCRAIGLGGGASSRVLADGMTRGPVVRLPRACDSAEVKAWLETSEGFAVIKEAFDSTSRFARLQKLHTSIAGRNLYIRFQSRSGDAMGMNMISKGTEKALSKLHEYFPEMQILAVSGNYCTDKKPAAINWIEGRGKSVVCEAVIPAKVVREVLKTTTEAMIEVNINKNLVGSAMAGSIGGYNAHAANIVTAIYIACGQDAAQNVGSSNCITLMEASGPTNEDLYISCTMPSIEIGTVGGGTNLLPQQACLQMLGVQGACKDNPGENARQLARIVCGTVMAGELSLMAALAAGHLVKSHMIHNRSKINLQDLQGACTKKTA
Nature of the assay: Inhibition of HMG-CoA reductase by spectrophotometry.
Details: not given; call rule not given here
For the compound `NCC(=O)N[C@@H](Cc1ccc(F)cc1)C(=O)N1CCC[C@H]1C(=O)NCC(=O)NCC(=O)NCC(=O)O` (H-G[Phe(4-F)]PGGG-OH), the IC50 result is recorded as “Not Active”.
Still for that read-out and setting: to H-DFGYVAG-OH belongs “Not Active”.

The assay is the same for the next values; noted with them: read-out: IC50.
Consider `CC(C)[C@H](NC(=O)[C@H](Cc1ccc(F)cc1)NC(=O)CNC(=O)[C@@H](N)Cc1ccccc1)C(=O)N[C@@H](C)C(=O)N[C@@H](CCC(=O)O)C(=O)O` (H-FG[Phe(4-F)]VAE-OH), for which the IC50 was 8.52 µM.
Turning to `NCC(=O)N[C@@H](Cc1ccc(F)cc1)C(=O)N1CCC[C@H]1C(=O)N[C@@H](CC(=O)O)C(=O)NCC(=O)NCC(=O)O` (H-G[Phe(4-F)]PDGG-OH), the IC50 was 6.95 µM.
Still for that read-out and setting: to `NCC(=O)N[C@@H](Cc1ccc(F)cc1)C(=O)N1CCC[C@H]1C(=O)N[C@@H](CCC(=O)O)C(=O)NCC(=O)NCC(=O)O` (H-G[Phe(4-F)]PEGG-OH) belongs 0.75 µM; to `C[C@@H](O)[C@H](NC(=O)[C@@H]1CCCN1C(=O)[C@H](Cc1ccc(F)cc1)NC(=O)CN)C(=O)NCC(=O)NCC(=O)O` (H-G[Phe(4-F)]PTGG-OH), 4.82 µM; to `CC[C@H](C)[C@H](N)C(=O)N[C@@H](C)C(=O)N[C@H](C(=O)N[C@@H](CCC(=O)O)C(=O)O)C(C)C` (H-IAVE-OH), 75.2 µM.
The same measure, in the same setting: to `CC[C@H](C)[C@H](N)C(=O)N[C@H](C(=O)N[C@@H](C)C(=O)N[C@@H](CCC(=O)O)C(=O)O)C(C)C` (H-IVAE-OH) belongs 52.7 µM.
Regarding `CC(C)C[C@H](N)C(=O)N1CCC[C@H]1C(=O)N[C@@H](Cc1ccc(O)cc1)C(=O)N1CCC[C@H]1C(=O)O` (H-LPYP-OH), the IC50 was determined as 485 µM.
Consider `CC(C)[C@H](NC(=O)[C@H](C)NC(=O)[C@@H](N)Cc1ccc(O)cc1)C(=O)N[C@@H](CCC(=O)O)C(=O)O` (H-YAVE-OH), for which the IC50 came out at 44.8 µM.
On the same count and under the same terms, next, `CC(C)[C@H](NC(=O)[C@@H](N)Cc1ccc(O)cc1)C(=O)N[C@@H](C)C(=O)N[C@@H](CCC(=O)O)C(=O)O` (H-YVAE-OH): 41.2 µM; `CC(C)[C@H](NC(=O)[C@@H](N)Cc1ccc(F)cc1)C(=O)N[C@@H](C)C(=O)N[C@@H](CCC(=O)O)C(=O)O` (H-[Phe(4-F)]VAE-OH): 3.84 µM; H-DFGYVAE-OH: 0.16 µM.
Same read-out and setting: to H-EFGYVAE-OH belongs 0.24 µM.
Take H-FFYVAE-OH: the IC50 came to 2.56 µM.
With H-FGYVAE-OH, the IC50 was found to be 0.41 µM.
Same read-out and setting: to H-FPYVAE-OH belongs 1.47 µM; to H-GFGYVAE-OH, 0.27 µM; to H-GFPDGG-OH, 1.52 µM.
Still for that read-out and setting: to H-GFPEGG-OH belongs 1.78 µM; to H-GFPTGG-OH, 16.9 µM.
Regarding H-GLPDGG-OH, the IC50 was 22.3 µM.
On the same count and under the same terms, next, H-GLPEGG-OH: 27.3 µM; H-GLPTGG-OH: 19.4 µM; H-IAVPGEVA-OH: 201 µM.
For the compound H-IAVPTGVA-OH, the IC50 is 152 µM.
Regarding H-TFGYVAE-OH, the IC50 was found to be 0.26 µM.

The next assay addresses T1, 3-hydroxy-3-methylglutaryl-coenzyme A reductase. Nature of the assay: Competitive inhibition of HMG-CoA reductase by Dixon plot analysis.
Details: not given
`C[C@@H](O)[C@H](NC(=O)[C@@H]1CCCN1C(=O)[C@H](Cc1ccc(F)cc1)NC(=O)CN)C(=O)NCC(=O)NCC(=O)O` (H-G[Phe(4-F)]PTGG-OH) had a Ki of 260 nM. This lies in the sub-micromolar range.
The same measure, in the same setting: next, H-DFGYVAE-OH: 51 nM.
